How the values were obtained:
HCT-116 = test: Growth inhibition of human HCT116 cells assessed as cell growth at 10^-7 M incubated for 48 hrs by sulforhodamine B assay relative to control; format: functional; details: HCT-116, 48 h, read-out: Activity
SF-268 = test: Growth inhibition of human SF268 cells assessed as cell growth at 10^-6 M incubated for 48 hrs by sulforhodamine B assay relative to control; format: functional; details: SF-268, 48 h, read-out: Activity
SF-295 [1] = test: Growth inhibition of human SF295 cells assessed as cell growth at 10^-6 M incubated for 48 hrs by sulforhodamine B assay relative to control; format: functional; details: SF-295, 48 h, read-out: Activity
OVCAR-3 [2] = test: Growth inhibition of human OVCAR3 cells assessed as cell growth at 10^-5 M incubated for 48 hrs by sulforhodamine B assay relative to control; format: functional; details: OVCAR-3, 48 h, read-out: Activity
CCRF-CEM [3] = test: Growth inhibition of human CCRF-CEM cells incubated for 48 hrs by sulforhodamine B assay; format: functional
NCI-H226 = test: Growth inhibition of human NCI-H226 cells at 10 uM incubated for 48 hrs by sulforhodamine B assay relative to control; format: functional; details: NCI-H226, 48 h, values are per cent of control
RXF 393 = test: Growth inhibition of human RXF393 cells at 10 uM incubated for 48 hrs by sulforhodamine B assay relative to control; format: functional; details: RXF 393, 48 h, values are per cent of control
786-0 = test: Growth inhibition of human 786-0 cells at 10 uM incubated for 48 hrs by sulforhodamine B assay relative to control; format: functional; details: 786-0, 48 h, values are per cent of control
SK-OV-3 = test: Growth inhibition of human SKOV3 cells at 10 uM incubated for 48 hrs by sulforhodamine B assay relative to control; format: functional; details: SK-OV-3, 48 h, values are per cent of control
NCI/ADR-RES = test: Growth inhibition of human NCI/ADR-RES cells at 10 uM incubated for 48 hrs by sulforhodamine B assay relative to control; format: functional; details: values are per cent of control
DU-145 = test: Growth inhibition of human DU145 cells at 10 uM incubated for 48 hrs by sulforhodamine B assay relative to control; format: functional; details: DU-145, 48 h, values are per cent of control
MCF7 = test: Growth inhibition of human MCF7 cells at 10 uM incubated for 48 hrs by sulforhodamine B assay relative to control; format: functional; details: MCF7, 48 h, values are per cent of control
Hs-578T = test: Growth inhibition of human Hs 578T cells at 10 uM incubated for 48 hrs by sulforhodamine B assay relative to control; format: functional; details: values are per cent of control
T47D = test: Growth inhibition of human T47D cells at 10 uM incubated for 48 hrs by sulforhodamine B assay relative to control; format: functional; details: values are per cent of control
MDA-MB-468 = test: Growth inhibition of human MDA-MB-468 cells at 10 uM incubated for 48 hrs by sulforhodamine B assay relative to control; format: functional; details: MDA-MB-468, 48 h, values are per cent of control
M14 = test: Growth of human M14 cells at 10 uM incubated for 48 hrs by sulforhodamine B assay relative to control; details: M14, 48 h
U-251 = test: Growth of human U251 cells at 10 uM incubated for 48 hrs by sulforhodamine B assay relative to control; details: U-251, 48 h
SNB-75 = test: Growth of human SNB75 cells at 10 uM incubated for 48 hrs by sulforhodamine B assay relative to control; details: SNB-75, 48 h
SF-295 [4] = test: Growth of human SF295 cells at 10 uM incubated for 48 hrs by sulforhodamine B assay relative to control; details: SF-295, 48 h
SW-620 = test: Growth of human SW620 cells at 10 uM incubated for 48 hrs by sulforhodamine B assay relative to control; details: SW-620, 48 h
OVCAR-8 = test: Growth of human OVCAR8 cells at 10 uM incubated for 48 hrs by sulforhodamine B assay relative to control; details: OVCAR-8, 48 h
OVCAR-3 [5] = test: Growth of human OVCAR3 cells at 10 uM incubated for 48 hrs by sulforhodamine B assay relative to control; details: OVCAR-3, 48 h
UACC-62 = test: Growth of human UACC62 cells at 10 uM incubated for 48 hrs by sulforhodamine B assay relative to control; details: UACC-62, 48 h
UACC-257 = test: Growth of human UACC257 cells at 10 uM incubated for 48 hrs by sulforhodamine B assay relative to control; details: UACC-257, 48 h
LOX IMVI = test: Growth of human LOXIMVI cells at 10 uM incubated for 48 hrs by sulforhodamine B assay relative to control
HCC 2998 = test: Growth of human HCC2998 cells at 10 uM incubated for 48 hrs by sulforhodamine B assay relative to control; details: HCC 2998, 48 h
COLO 205 = test: Growth of human COLO205 cells at 10 uM incubated for 48 hrs by sulforhodamine B assay relative to control; details: COLO 205, 48 h
SK-MEL-5 = test: Growth of human SK-MEL-5 cells at 10 uM incubated for 48 hrs by sulforhodamine B assay relative to control; details: SK-MEL-5, 48 h
SK-MEL-2 = test: Growth of human SK-MEL-2 cells at 10 uM incubated for 48 hrs by sulforhodamine B assay relative to control; details: SK-MEL-2, 48 h
Malme-3M = test: Growth of human MALME-3M cells at 10 uM incubated for 48 hrs by sulforhodamine B assay relative to control
CCRF-CEM [6] = test: Growth of human CCRF-CEM cells at 10 uM incubated for 48 hrs by sulforhodamine B assay relative to control
A549 = test: Growth of human A549/ATCC cells at 10 uM incubated for 48 hrs by sulforhodamine B assay relative to control; details: A549, 48 h

CCS/C(Nc1ccccc1)=C(\C#N)C(=O)N/N=C\c1ccc(Cl)cc1Cl
growth at 0.1 µM (HCT-116): 92% | growth at 1 µM (SF-268): 87% | growth at 1 µM (SF-295 [1]): 80% | growth at 10 µM (OVCAR-3 [2]): 1% | GI50 (CCRF-CEM [3]; read-out: GI50): 3.07 µM | CC50 (CCRF-CEM [3]; read-out: LC50 (the source's name)): > 100 µM | TGI (CCRF-CEM [3]; read-out: TGI): > 100 µM | GI50 (CCRF-CEM [3]; read-out: pGI50 (converted)): 3.09 µM | CC50 (CCRF-CEM [3]; read-out: pLC50 (the source's name) (converted)): > 100 µM | TGI (CCRF-CEM [3]; read-out: pTGI): > 100 µM | growth, % of control at 10 µM (NCI-H226): 37.7% | growth, % of control at 10 µM (RXF 393): 2.63% | growth, % of control at 10 µM (786-0): 31.8% | growth, % of control at 10 µM (SK-OV-3): 15.5% | growth, % of control at 10 µM (NCI/ADR-RES): 10.8% | growth, % of control at 10 µM (DU-145): 20% | growth, % of control at 10 µM (MCF7): 19.3% | growth, % of control at 10 µM (Hs-578T): -6.44% | growth, % of control at 10 µM (T47D): 17.8% | growth, % of control at 10 µM (MDA-MB-468): 19.6% | growth, % of control at 10 µM (M14): 21% | growth, % of control at 10 µM (U-251): 19.1% | growth, % of control at 10 µM (SNB-75): -6.89% | growth, % of control at 10 µM (SF-295 [4]): 17% | growth, % of control at 10 µM (SW-620): 18.6% | growth, % of control at 10 µM (OVCAR-8): 28.6% | growth, % of control at 10 µM (OVCAR-3 [5]): 1.46% | growth, % of control at 10 µM (UACC-62): 26.6% | growth, % of control at 10 µM (UACC-257): 51.9% | growth, % of control at 10 µM (LOX IMVI): 34.4% | growth, % of control at 10 µM (HCC 2998): 48.4% | growth, % of control at 10 µM (COLO 205): 28.4% | growth, % of control at 10 µM (SK-MEL-5): 12.4% | growth, % of control at 10 µM (SK-MEL-2): 28.3% | growth, % of control at 10 µM (Malme-3M): 38.1% | growth, % of control at 10 µM (CCRF-CEM [6]): 9.86% | growth, % of control at 10 µM (A549): 38.3%
